# Test results from patent publication US9464084B2, “P2X7 modulators” (Janssen Pharmaceutica NV, priority 2013, dated 2016).
# Columns and labels:
# P2X7 [1] = biological target: T1, P2X7 (Homo sapiens (Human), UniProt Q99572); experiment: Radioligand binding, tritiated A-804598, human P2X7-1321N1 cell membranes; settings: 1 hour at 4° C.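 Further: ki obtained from the binding IC50 after correction for tracer concentration and tracer affinity.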
# Experimental: On the day of the experiment, cell membrane preparations were made according to standard published methods. […] The assay was terminated by filtration (GF/B filters pre-soaked with 0.3% PEI) and washed with washing buffer (Tris-HCl 50 mM). The IC50 generated in the binding assay was corrected for tracer concentration and affinity of the tracer to derive at the affinity (Ki) of the test compounds.
# P2X7 [2] = biological target: T1, P2X7; experiment: P2X7 antagonism in human PBMCs (LPS + Bz-ATP induced IL-1β release, ELISA); type: cell-based; settings: LPS 30 ng/ml, Bz-ATP 0.5 mM; for PBMC 10 μM (% control): compound 10 μM; for PBMC 1 μM (% control): compound 1 μM;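 on all read-outs here: PBMCs from donor human blood, with a further 1.5 h incubation of the cells in the assay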
# Experimental: Human blood was collected using a blood donor program. PBMCs were isolated from blood using a Ficoll density gradient technique. Briefly, blood was laid on Ficoll solution and centrifuged at RT for 20 minutes at 2000 rpm. The buffy layer (between red blood cells and plasma) was carefully collected by aspiration, washed with PBS and centrifuged again at 1500 rpm for 15 minutes. The resulting cell pellet was washed and plated on 96 well-plates for experiments. For the Mouse/Human Whole Blood experiments, 150 μl of either mouse or human blood was platted on 96 well-plates. Lipopolysaccharide (LPS) (30 ng/ml) was added to each well and incubated for 1 hour. Test compounds were then added and incubated for 30 minutes. The P2X7 agonist, 2′(3′)-O-(4-benzoylbenzoyl) adenosine 5′ triphosphate (Bz-ATP) was then added at a final concentration of 0.5 mM (PBMC) or 1 mM (blood). Cells were incubated for an additional 1.5 hours. At that point, supernatant was collected and stored for IL-1β assay using manufacturer's protocol for enzyme-linked immunosorbent assay (ELISA). Data was expressed as percent control, where control is defined as the difference in IL-1β release in LPS+Bz-ATP samples and LPS only samples. Data was plotted as response (% control) versus concentration to generate IC50 values.
# P2X7 [3] = biological target: T1, P2X7; experiment: Ca2+ flux (FLIPR) in 1321N1 cells expressing recombinant human P2X7 channel; type: cell-based; settings: 250 μM BzATP;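 further: Calcium-4 dye-loaded cells exposed to compound for 30 min before agonist addition, fluorescence change read 180 s after agonist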
# rat P2X7 = rat P2X7 (Rattus norvegicus (Rat), UniProt Q64663); experiment: Ca2+ flux (FLIPR) in 1321N1 cells expressing recombinant rat P2X7 channel; type: cell-based; settings: 250 μM BzATP;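 further: Calcium-4 dye fluorescence change read 180 s after agonist addition, following 30 min cell preincubation with test compound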
# Sequence of rat P2X7 (Q64663 whole entry): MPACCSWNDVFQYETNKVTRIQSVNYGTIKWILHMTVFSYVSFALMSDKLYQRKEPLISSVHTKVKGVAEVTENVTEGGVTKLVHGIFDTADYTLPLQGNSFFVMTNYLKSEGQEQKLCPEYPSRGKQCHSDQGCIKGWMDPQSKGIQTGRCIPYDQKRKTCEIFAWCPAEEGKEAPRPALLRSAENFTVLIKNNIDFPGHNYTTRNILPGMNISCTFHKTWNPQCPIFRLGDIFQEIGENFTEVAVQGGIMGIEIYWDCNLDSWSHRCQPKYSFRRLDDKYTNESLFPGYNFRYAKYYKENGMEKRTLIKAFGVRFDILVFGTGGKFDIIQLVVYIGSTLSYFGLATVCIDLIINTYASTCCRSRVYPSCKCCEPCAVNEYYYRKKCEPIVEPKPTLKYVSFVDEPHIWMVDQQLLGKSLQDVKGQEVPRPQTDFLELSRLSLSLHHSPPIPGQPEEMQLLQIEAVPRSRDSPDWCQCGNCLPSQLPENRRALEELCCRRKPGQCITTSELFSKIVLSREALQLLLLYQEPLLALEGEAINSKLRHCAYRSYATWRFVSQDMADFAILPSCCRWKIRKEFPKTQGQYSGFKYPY
# T1 sequence (Q99572 whole entry): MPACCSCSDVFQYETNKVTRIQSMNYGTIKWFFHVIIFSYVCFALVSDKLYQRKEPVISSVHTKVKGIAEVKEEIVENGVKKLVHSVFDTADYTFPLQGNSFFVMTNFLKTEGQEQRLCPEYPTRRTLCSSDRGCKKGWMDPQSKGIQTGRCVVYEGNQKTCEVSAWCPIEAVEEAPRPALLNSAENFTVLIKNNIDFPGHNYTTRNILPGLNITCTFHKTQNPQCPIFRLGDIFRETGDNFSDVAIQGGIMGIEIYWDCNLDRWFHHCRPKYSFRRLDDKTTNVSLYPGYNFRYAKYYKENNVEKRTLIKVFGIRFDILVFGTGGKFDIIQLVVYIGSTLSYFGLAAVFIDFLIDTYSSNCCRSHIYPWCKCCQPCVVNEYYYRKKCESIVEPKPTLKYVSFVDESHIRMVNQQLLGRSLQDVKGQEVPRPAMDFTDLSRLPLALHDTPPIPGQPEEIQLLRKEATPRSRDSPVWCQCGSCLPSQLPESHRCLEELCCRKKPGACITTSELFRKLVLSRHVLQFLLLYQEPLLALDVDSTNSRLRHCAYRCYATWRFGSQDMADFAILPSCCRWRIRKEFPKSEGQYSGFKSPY
Structure (SMILES),Ki (P2X7 [1]),PBMC 10 μM (% control) (P2X7 [2]),IC50 (P2X7 [3]),PBMC 1 μM (% control) (P2X7 [2]),IC50 (rat P2X7)
"C[C@H]1c2nnn(-c3ccccn3)c2CCN1C(=O)c1ccc(F)c(Cl)c1Cl (single isomer, unassigned) [Example 142, (S*)-(2,3-Dichloro-4-fluorophenyl)(4-methyl-1-(pyridin-2-yl)-6,7-dihydro-1H-[1,2,3]triazolo[4,5-c]pyridin-5(4H)-yl)methanone]",10 nM,33.8 % control,2 nM,–,–
"C[C@@H]1Cc2c(nnn2-c2cc(F)ccn2)CN1C(=O)c1cccc(C(F)(F)F)c1Cl (single isomer, unassigned) [Example 198, (6R*)-5-{[2-Chloro-3-(trifluoromethyl)phenyl]carbonyl}-1-(4-fluoropyridin-2-yl)-6-methyl-4,5,6,7-tetrahydro-1H-[1,2,3]triazolo[4,5-c]pyridine]",631 nM,1.3 % control,180 nM,–,–
"C[C@H]1Cc2c(nnn2-c2cc(F)ccn2)CN1C(=O)c1cccc(C(F)(F)F)c1Cl (single isomer, unassigned) [Example 199, (6S*)-5-{[2-Chloro-3-(trifluoromethyl)phenyl]carbonyl}-1-(4-fluoropyridin-2-yl)-6-methyl-4,5,6,7-tetrahydro-1H-[1,2,3]triazolo[4,5-c]pyridine]",39.8 nM,0.0 % control,8.6 nM,–,–
"C[C@H]1Cc2c(nnn2-c2ncc(F)cn2)CN1C(=O)c1ccc(Cl)c(F)c1Cl (single isomer, unassigned) [Example 218, (6S*)-5-[(2,4-Dichloro-3-fluorophenyl)carbonyl]-1-(5-fluoropyrimidin-2-yl)-6-methyl-4,5,6,7-tetrahydro-1H-[1,2,3]triazolo[4,5-c]pyridine]",2.5 nM,6.1 % control,–,–,–
"O=C(c1cccc(C(F)(F)F)c1Cl)N1CCc2c(ncn2-c2ccccn2)C1 [Example 1, (2-Chloro-3-(trifluoromethyl)phenyl)(1-(pyridin-2-yl)-6,7-dihydro-1H-imidazo[4,5-c]pyridin-5(4H)-yl)methanone]",75.9 nM,–,6.1 nM,11.5 % control,–
"O=C(c1cccc(C(F)(F)F)c1Cl)N1CCc2c(ncn2-c2cnccn2)C1 [Example 6, (2-Chloro-3-(trifluoromethyl)phenyl)(1-(pyrazin-2-yl)-6,7-dihydro-1H-imidazo[4,5-c]pyridin-5(4H)-yl)methanone]",42.7 nM,–,9.4 nM,14.3 % control,–
"CCC1c2ncn(-c3cnccn3)c2CCN1C(=O)c1cccc(C(F)(F)F)c1Cl (centres unmarked) [Example 15, (2-Chloro-3-(trifluoromethyl)phenyl)(4-ethyl-1-(pyrazin-2-yl)-6,7-dihydro-1H-imidazo[4,5-c]pyridin-5(4H)-yl)methanone]",158 nM,–,87.5 nM,9.1 % control,–
"CC1c2ncn(-c3ncccc3F)c2CCN1C(=O)c1cccc(C(F)(F)F)c1Cl (centres unmarked) [Example 21, (2-Chloro-3-(trifluoromethyl)phenyl)(1-(3-fluoropyridin-2-yl)-4-methyl-6,7-dihydro-1H-imidazo[4,5-c]pyridin-5(4H)-yl)methanone]",126 nM,1.6 % control,78.5 nM,–,–
"O=C(c1cccc(C(F)(F)F)c1F)N1CCc2c(nc(C(F)(F)F)n2-c2ccccc2)C1 [Example 57, 5-{[2-Fluoro-3-(trifluoromethyl)phenyl]carbonyl}-1-phenyl-2-(trifluoromethyl)-4,5,6,7-tetrahydro-1H-imidazo[4,5-c]pyridine]",794 nM,46.7 % control,718 nM,–,–
"O=C(c1cccc(Cl)c1Cl)N1CCc2c(ncn2-c2ccn[nH]2)C1 [Example 60, 5-[(2,3-Dichlorophenyl)carbonyl]-1-(1H-pyrazol-5-yl)-4,5,6,7-tetrahydro-1H-imidazo[4,5-c]pyridine]",100 nM,8.4 % control,55.7 nM,–,–
"O=C(c1cccc(C(F)(F)F)c1Cl)N1CCc2c(nnn2-c2ncc(F)cn2)C1 [Example 64, 5-{[2-Chloro-3-(trifluoromethyl)phenyl]carbonyl}-1-(5-fluoropyrimidin-2-yl)-4,5,6,7-tetrahydro-1H-[1,2,3]triazolo[4,5-c]pyridine]",31.6 nM,−9.2 % control,14.3 nM,–,–
"O=C(c1cccc(C(F)(F)F)c1Cl)N1CCc2c(nnn2-c2cnccn2)C1c1ccccc1 (centres unmarked) [Example 77, 5-{[2-Chloro-3-(trifluoromethyl)phenyl]carbonyl}-4-phenyl-1-pyrazin-2-yl-4,5,6,7-tetrahydro-1H-[1,2,3]triazolo[4,5-c]pyridine]",398 nM,–,–,31.7 % control,6.3 nM
"Cn1nc(-c2cccnc2)c2c1CN(C(=O)c1cccc(C(F)(F)F)c1Cl)CC2 [Example 108, 6-{[2-Chloro-3-(trifluoromethyl)phenyl]carbonyl}-1-methyl-3-pyridin-3-yl-4,5,6,7-tetrahydro-1H-pyrazolo[3,4-c]pyridine]",100 nM,–,–,1.1 % control,794 nM
